Read-outs that look alike come from different tables or passages of the source.
Target: human thymidylate synthase (hTS) (Homo sapiens, UniProt P04818)
Test: Thymidylate synthase inhibitory assay
Type: biochemical

Chain of human thymidylate synthase (hTS) (P04818 whole entry): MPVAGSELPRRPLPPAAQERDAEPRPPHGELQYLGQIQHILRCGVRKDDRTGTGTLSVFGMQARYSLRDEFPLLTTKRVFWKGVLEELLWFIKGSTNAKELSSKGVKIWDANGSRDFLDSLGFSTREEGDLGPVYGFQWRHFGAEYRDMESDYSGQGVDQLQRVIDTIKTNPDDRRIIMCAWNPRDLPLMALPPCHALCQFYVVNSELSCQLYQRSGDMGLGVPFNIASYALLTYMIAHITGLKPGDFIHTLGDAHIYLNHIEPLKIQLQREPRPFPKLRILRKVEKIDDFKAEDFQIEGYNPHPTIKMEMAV

Molecule	IC50 (read-out: In vitro thymidylate synthase (TS) IC50, 30 °C, pH 7.4, 30 nM hTS, absorbance at 340 nm, mean ± SEM, triplicate) [nM]	IC50 [nM]
7-(4-methoxyphenyl)-1,3-dimethyl-5-(naphthalen-2-yl)pyrido[2,3-d]pyrimidine-2,4(1 H,3 H)-dione [Compound 2n]	13.5 ± 0.96	
COc1ccc(-c2cc(-c3ccc(N(C)C)cc3)c3c(=O)[nH]c(=O)[nH]c3n2)cc1 [Compound 1j, 5-(4-(dimethylamino)phenyl)-7-(4-methoxyphenyl)pyrido[2,3-d]pyrimidine-2,4(1 H,3 H)-dione]		20.5 ± 1.09
COc1ccc(-c2cc(-c3ccc4ccccc4c3)c3c(=O)[nH]c(=O)[nH]c3n2)cc1 [Compound 1n, 7-(4-methoxyphenyl)-5-(naphthalen-2-yl)pyrido[2,3-d]pyrimidine-2,4(1 H,3 H)-dione]		20.5 ± 1.09
COc1ccc(-c2cc(-c3ccc(N(C)C)cc3)c3c(=O)n(C)c(=O)n(C)c3n2)cc1 [Compound 2j, 5-(4-(dimethylamino)phenyl)-7-(4-methoxyphenyl)-1,3-dimethylpyrido[2,3-d]pyrimidine-2,4(1 H,3 H)-dione]		13.5 ± 0.96

Reference: PMC11361161 (BMC Chemistry, 2024)
